{"source": "patent US9822058B2", "about": "(CHDI FOUNDATION, INC., priority 2012, dated 2017)", "molecular_target": "T1, KMO mouse enzyme (Mus musculus, UniProt Q91WN4)", "T1 construct": "KMO enzyme prepared at Evotec from mouse liver (4-6 weeks old) via mitochondria isolation; from tissue; host or cells: mouse liver (4-6 weeks old), isolated mitochondria, prepared at Evotec", "T1 sequence (Q91WN4 whole entry)": "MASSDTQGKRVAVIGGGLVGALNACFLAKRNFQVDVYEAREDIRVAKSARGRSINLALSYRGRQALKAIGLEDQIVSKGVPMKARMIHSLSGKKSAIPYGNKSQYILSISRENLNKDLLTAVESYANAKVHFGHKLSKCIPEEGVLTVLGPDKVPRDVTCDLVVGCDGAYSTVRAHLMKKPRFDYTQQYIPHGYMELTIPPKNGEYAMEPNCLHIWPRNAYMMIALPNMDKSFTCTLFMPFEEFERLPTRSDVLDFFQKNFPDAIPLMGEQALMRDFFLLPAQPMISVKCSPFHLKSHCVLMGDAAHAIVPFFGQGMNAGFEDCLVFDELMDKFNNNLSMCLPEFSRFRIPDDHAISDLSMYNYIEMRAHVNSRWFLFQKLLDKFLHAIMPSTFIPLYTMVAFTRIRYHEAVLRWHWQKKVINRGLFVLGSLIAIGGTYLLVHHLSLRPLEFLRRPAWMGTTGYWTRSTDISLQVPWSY", "test": "KMO mouse enzyme assay: L-Kynurenine hydroxylation to 3-Hydroxy-Kynurenine by LC/MS (protocols substantially similar to Example 33)", "type": "biochemical", "conditions": "compound at 30 µM; KMO enzyme from mouse liver mitochondria; 100 μM L-Kynurenine; 40 min at RT", "experimental": "A method of monitoring L-Kynurenine (KYN) hydroxylation to form 3-Hydroxy-Kynurenine (3OH-KYN) by LC/MS is described. Product is quantified by multiple reaction monitoring (MRM method). […]\nUsing the assay protocols substantially similar to those of Example 33, the following compounds were tested."}
{"compound": "O=C(NCCO)[C@H]1C[C@@H]1C(=O)c1ccc(Cl)c(Cl)c1", "note": "[(1S,2S)-2-[(3,4-dichlorophenyl)carbonyl]-N-(2-hydroxyethyl)cyclopropane-1-carboxamide]", "values": [{"measurement": "inhibition at 30 µM", "value": 94, "unit": "%"}]}
